The values that follow come from patent publication US20140005165A1, “SUBSTITUTED 3-AZABICYCLO[3.1.0]HEXANE DERIVATIVES USEFUL AS CCR2 ANTAGONISTS” (priority 2011, published 2014).

Each structure is given as a SMILES string.

The target of one assay is T1, human CCR2 (Homo sapiens, UniProt P41597).
T1 construct: expressed in transfected cells; host or cells: Ba/F3 cells (membrane preparation)
T1 sequence (P41597 whole entry): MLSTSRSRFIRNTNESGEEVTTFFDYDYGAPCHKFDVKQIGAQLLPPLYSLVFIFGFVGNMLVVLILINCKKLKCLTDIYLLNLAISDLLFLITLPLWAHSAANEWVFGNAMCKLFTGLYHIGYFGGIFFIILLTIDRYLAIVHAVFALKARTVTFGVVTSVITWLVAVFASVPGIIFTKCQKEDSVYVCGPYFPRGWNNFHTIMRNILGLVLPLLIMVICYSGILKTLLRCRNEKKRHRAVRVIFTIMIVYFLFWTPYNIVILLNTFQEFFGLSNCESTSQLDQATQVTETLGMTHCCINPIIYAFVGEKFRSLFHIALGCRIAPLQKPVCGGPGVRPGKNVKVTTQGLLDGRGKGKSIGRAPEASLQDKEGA
As to the kind of experiment: CCR2 Membrane Binding Assay (SPA radio-ligand binding, 125I-rhMCP-1). The settings on record: membranes from Ba/F3 cells transfected with human CCR2; 0.03 nM 125I-rhMCP-1; 4 h room temperature. As for the experimental part: The radio-ligand binding assay was done using scintillation proximity assay (SPA) technology. Briefly, membranes (1 μg per assay point) from Ba/F3 cells transfected with human CCR2, and wheat germ agglutinin-coated SPA beads (80 μg per point; Amersham, Arlington Heights, Ill.), were pre-incubated for 30 min at room temperature in CCR2 buffer (50 mM HEPES (pH=7.4), 10 mM MgCl2, 10 mM NaCl, 1 mM CaCL2, 0.1% BSA, 10 μg/ml Saponin). At this point pre-bound SPA bead, membrane complex was incubated at room temperature for 4 h with varying concentrations of punitive CCR2 antagonists (in 1% DMSO, final) and 0.03 nM ^125I-rhMCP-1 in CCR2Buffer (S.A. 2200 Ci/mmol, PerkinElmer Life and Analytical Science, Boston, Mass.; NEX332). Binding competition was measured using a 1450 Microbeta Trilux counter (Wallac, Gaithersburg, Md.). Binding constants (IC50 and slope) were calculated using GraphPad Prism software (GraphPad Software, Inc., La Jolla Calif.).
What is called IC50 is the concentration at which inhibition is half-maximal. Read a low IC50 as higher potency. `O=C(CNC(=O)[C@H]1[C@@H]2CN(C3CCC(c4ccccc4)CC3)C[C@@H]21)Nc1cccc(C(F)(F)F)c1` (stereo partly drawn) [Compound 4] returned an IC50 of 3.5 nM.

The same assay, now with this note: membranes from Ba/F3 cells transfected with human CCR2; 0.03 nM 125I-rhMCP-1; class symbols.
On to `O=C(NCCc1cccc(C(F)(F)F)c1)C1[C@H]2CN(C3CCCCC3)C[C@@H]12` (stereo partly drawn) [Compound 1], for which the IC50 was 51 to 200 nM.
On the same count and under the same terms, in the case of `O=C(CNC(=O)[C@H]1[C@@H]2CN(C3CCCCC3)C[C@@H]21)Nc1cccc(C(F)(F)F)c1` [Compound 2] it was 51 to 200 nM; in that of `O=C([C@H]1[C@@H]2CN([C@H]3CC[C@@H](c4ccccc4)CC3)C[C@@H]21)N1CC[C@@H](Nc2nccc(C(F)(F)F)n2)C1` [Compound 6], 51 to 200 nM.
`FC(F)(F)c1cccc(CN(Cc2cccc(C(F)(F)F)c2)c2nnc([C@H]3[C@@H]4CN([C@H]5CC[C@@H](c6ccccc6)CC5)C[C@@H]43)o2)c1` [Compound 8] registered an IC50 of 201 to 700 nM.
Same read-out and setting: to `CCC(C)N1C[C@@H]2[C@H](C1)[C@H]2C(=O)NCC(=O)Nc1cccc(C(F)(F)F)c1` (stereo partly drawn) [Compound 9] belongs 51 to 200 nM.
For `O=C(NCCc1ccccc1)[C@H]1[C@@H]2CN([C@H]3CC[C@@H](c4ccccc4)CC3)C[C@@H]21` [Compound 10], the “IC50 (nM)” value is “D (compounds with IC50 values between 701 nM and 110 nM are designated as D class compounds)”.
As to `O=C(CNC(=O)[C@H]1[C@@H]2CN(C3CCCC3)C[C@@H]21)Nc1cccc(C(F)(F)F)c1` [Compound 11], the IC50 lay within 51 to 200 nM.
On the same count and under the same terms, to `CC(C1CC1)N1C[C@@H]2[C@H](C1)[C@H]2C(=O)NCC(=O)Nc1cccc(C(F)(F)F)c1` (stereo partly drawn) [Compound 12] belongs 201 to 700 nM.
Compound `CCC(CC)N1C[C@@H]2[C@H](C1)[C@H]2C(=O)NCC(=O)Nc1cccc(C(F)(F)F)c1` [Compound 13] came in with an IC50 of 51 to 200 nM.
With `CCCC(C)N1C[C@@H]2[C@H](C1)[C@H]2C(=O)NCC(=O)Nc1cccc(C(F)(F)F)c1` (stereo partly drawn) [Compound 14], the “IC50 (nM)” value was “D (compounds with IC50 values between 701 nM and 110 nM are designated as D class compounds)”.
Consider `COCC(C)N1C[C@@H]2[C@H](C1)[C@H]2C(=O)NCC(=O)Nc1cccc(C(F)(F)F)c1` (stereo partly drawn) [Compound 15], for which the IC50 was in the range of 201 to 700 nM.
On to `O=C(NC1Cc2ccccc2C1)[C@H]1[C@@H]2CN([C@H]3CC[C@@H](c4ccccc4)CC3)C[C@@H]21` [Compound 16], for which the “IC50 (nM)” value is “D (compounds with IC50 values between 701 nM and 110 nM are designated as D class compounds)”.
On to `CC(C)N1C[C@@H]2C(C(=O)NCCc3cccc(C(F)(F)F)c3)[C@@H]2C1` (stereo partly drawn) [Compound 18], for which the IC50 is 201 to 700 nM.
Still for that read-out and setting: to `CC1CCC(N2C[C@@H]3[C@H](C2)[C@H]3C(=O)NCC(=O)Nc2cccc(C(F)(F)F)c2)C1` (stereo partly drawn) [Compound 19] belongs 201 to 700 nM.
On to `CC(N1C[C@@H]2[C@H](C1)[C@H]2C(=O)NCC(=O)Nc1cccc(C(F)(F)F)c1)C1(C)CC1` (stereo partly drawn) [Compound 20], for which the “IC50 (nM)” value is “D (compounds with IC50 values between 701 nM and 110 nM are designated as D class compounds)”.
Consider `O=C(CNC(=O)C1C2CN(C3CCOCC3)CC21)Nc1cccc(C(F)(F)F)c1` (stereo not drawn) [Compound 21], for which the IC50 lay in the range of 51 to 200 nM.
On the same count and under the same terms, in the case of `O=C(CNC(=O)[C@H]1[C@@H]2CN(C3CCCOC3)C[C@@H]21)Nc1cccc(C(F)(F)F)c1` (stereo partly drawn) [Compound 22] it was 51 to 200 nM; in that of `O=C(CNC(=O)[C@H]1[C@@H]2CN(C3CC(CO)C3)C[C@@H]21)Nc1cccc(C(F)(F)F)c1` (stereo partly drawn) [Compound 23], 201 to 700 nM.
`O=C([C@H]1[C@@H]2CN([C@H]3CC[C@@H](c4ccccc4)CC3)C[C@@H]21)N1CC(Oc2ccccc2)C1` [Compound 25]: the “IC50 (nM)” value was “D (compounds with IC50 values between 701 nM and 110 nM are designated as D class compounds)”.
The compound `O=C(CNC(=O)[C@H]1[C@@H]2CN(C3C[C@@H]4CC[C@H]3C4)C[C@@H]21)Nc1cccc(C(F)(F)F)c1` (stereo partly drawn) [Compound 27] came in with an IC50 of 51 to 200 nM.
In the case of `O=C1CCC(N2C[C@@H]3[C@H](C2)[C@H]3C(=O)NCC(=O)Nc2cccc(C(F)(F)F)c2)CC1` [Compound 29], the “IC50 (nM)” value is “D (compounds with IC50 values between 701 nM and 110 nM are designated as D class compounds)”.
On to `CC1CCC(N2C[C@@H]3[C@H](C2)[C@H]3C(=O)NCC(=O)Nc2cccc(C(F)(F)F)c2)CC1` (stereo partly drawn) [Compound 30], for which the IC50 lay in the range of 51 to 200 nM.
Same read-out and setting: in the case of `CC1CCCCC1N1C[C@@H]2[C@H](C1)[C@H]2C(=O)NCC(=O)Nc1cccc(C(F)(F)F)c1` (stereo partly drawn) [Compound 31] it was 51 to 200 nM.
On the same count and under the same terms, in the case of `CC1CCCC(N2C[C@@H]3[C@H](C2)[C@H]3C(=O)NCC(=O)Nc2cccc(C(F)(F)F)c2)C1` (stereo partly drawn) [Compound 32] it was 201 to 700 nM; in that of `O=C(CNC(=O)[C@H]1[C@@H]2CN(C3CCCCCC3)C[C@@H]21)Nc1cccc(C(F)(F)F)c1` [Compound 33], 201 to 700 nM.
`O=C(CNC(=O)[C@H]1[C@@H]2CN(C3CCC(O)CC3)C[C@@H]21)Nc1cccc(C(F)(F)F)c1` (stereo partly drawn) [Compound 34]: the IC50 was in the range of 201 to 700 nM.
`O=C(CNC(=O)[C@H]1[C@@H]2CN(C3CCSCC3)C[C@@H]21)Nc1cccc(C(F)(F)F)c1` [Compound 35]: the “IC50 (nM)” value is “D (compounds with IC50 values between 701 nM and 110 nM are designated as D class compounds)”.
In turn, `O=C(NC1CCc2ccc(F)cc2C1)[C@H]1[C@@H]2CN([C@H]3CC[C@@H](c4ccccc4)CC3)C[C@@H]21` (stereo partly drawn) [Compound 36] gave an IC50 of 201 to 700 nM.
Consider `CC=C1CCC(N2C[C@@H]3[C@H](C2)[C@H]3C(=O)NCC(=O)Nc2cccc(C(F)(F)F)c2)CC1` (stereo partly drawn) [Compound 37], for which the “IC50 (nM)” value was “D (compounds with IC50 values between 701 nM and 110 nM are designated as D class compounds)”.
The compound `CC1(C)CCCC(N2C[C@@H]3[C@H](C2)[C@H]3C(=O)NCC(=O)Nc2cccc(C(F)(F)F)c2)C1` (stereo partly drawn) [Compound 38] gave an IC50 of 201 to 700 nM.
As to `COC1CCC(N2C[C@@H]3[C@H](C2)[C@H]3C(=O)NCC(=O)Nc2cccc(C(F)(F)F)c2)CC1` (stereo partly drawn) [Compound 39], the “IC50 (nM)” value was “D (compounds with IC50 values between 701 nM and 110 nM are designated as D class compounds)”.
Compound `N#Cc1cccc(C2CCN(C(=O)[C@H]3[C@@H]4CN([C@H]5CC[C@@H](c6ccccc6)CC5)C[C@@H]43)C2)c1` (stereo partly drawn) [Compound 40] displayed an IC50 of 51 to 200 nM.
Same read-out and setting: in the case of `N#Cc1ccc(C2CCN(C(=O)[C@H]3[C@@H]4CN([C@H]5CC[C@@H](c6ccccc6)CC5)C[C@@H]43)C2)cc1` (stereo partly drawn) [Compound 41] it was 201 to 700 nM; in that of `O=C(NCc1cccc(C(F)(F)F)c1)[C@H]1[C@@H]2CN([C@H]3CC[C@@H](c4ccccc4)CC3)C[C@@H]21` [Compound 42], 51 to 200 nM.
`O=C1CC2CC(N3C[C@@H]4[C@H](C3)[C@H]4C(=O)NCC(=O)Nc3cccc(C(F)(F)F)c3)CC2C1` (stereo partly drawn) [Compound 44] showed an IC50 of 201 to 700 nM.
The same measure, in the same setting: to `CC(C)C1CCC(N2C[C@@H]3[C@H](C2)[C@H]3C(=O)NCC(=O)Nc2cccc(C(F)(F)F)c2)CC1` (stereo partly drawn) [Compound 45] belongs 201 to 700 nM; to `O=C(NCCc1cccc(C(F)(F)F)c1)C1[C@H]2CN(C3CCCC3)C[C@@H]12` (stereo partly drawn) [Compound 46], 201 to 700 nM.
The same measure, in the same setting: in the case of `O=C(NCCc1cccc(C(F)(F)F)c1)[C@H]1[C@@H]2CN([C@H]3CC[C@@H](c4ccccc4)CC3)C[C@@H]21` [Compound 48] it was under 50 nM.
